In US7235664B2, “Anthranilamides with heteroarylsulfonyl side chain, process of preparation, and use” (Sanofi-Aventis Deutschland GmbH, priority 2001, dated 2007):

melting point: 163 °C
Compound: CC[C@H](NC(=O)c1cc(F)ccc1NS(=O)(=O)c1cccc2cccnc12)c1ccccc1 [Example 52, (S)-5-Fluoro-2-(quinoline-8-sulfonylamino)-N-(1-phenylpropyl)-benzamide]
